This note sets out measurements from US5968910A, “Compositions containing two or three inhibitors of different HIV reverse transcriptases” (priority 1994, dated 1999).

What all share (format): cell-based
The subject of assay [1] is HIV-1(IIIB) (WT). The experiment in a line: microbe, parasite or virus in culture. To be noted: HIV-1 (III8), Table 5. Here is the method:
(§1) CEM cells were suspended at 250,000 cells per ml of culture medium and infected with wild-type HIV-I(IIIB) or mutant HIV-1 strains at 100 50% cell culture infective doses per ml. Then 100 μl of the infected cell suspensions was added to 200-μl microtiter plate wells containing 100 μl of an appropriate dilution of the test compounds. After 4 days incubation at 37° C., the cell cultures were examined for syncytium formation.

Assay [2] concerns HIV-1/II(0.1) 100-Ile. Briefly: Sensitivity of mutant HIV-1 strain in CEM cell cultures. To be noted: Table 5. Here is the method:
as §1

The test system of assay [3] is HIV-1/V(0.5) 103-Asn. The assay is described as above. The settings on record: Table 5. Here is the method: as §1
Assay [4] relates to HIV-1/I(0.1) 103-Asn. Described as above. The settings on record: Table 5. On the procedure:
as §1

Assay [5] has as its system HIV-1/III(0.1) 103-Asn. The assay is described as above. To be noted: Table 5. On the procedure:
as §1

Assay [6] relates to HIV-1/V(0.1) 101-Ile + 141-Glu. The description is as above. The settings on record: Table 5. On the procedure: as §1
Assay [7] has as its system HIV-1/IV(0.1) 103-Thr. The description is as above. To be noted: Table 5. Here is the method:
as §1

[8] abbreviates: Human immunodeficiency virus 1, CCRF-CEM, read-out: EC50.

In brackets after ≈: the same amount, converted by molar mass. Read-outs that look alike come from different tables or passages of the source.

As a reminder, the EC50 is the concentration at which the effect is half-maximal. On to `CCOCn1c(Cc2ccccc2)c(C(C)C)c(=O)[nH]c1=O` [MKC-442], for which the EC50 came out at 0.0006 µg/mL (≈ 0.00198 µM) in assay [1]; 0.40 µg/mL (≈ 1.32 µM) in assay [2]; 0.35 µg/mL (≈ 1.16 µM) in assay [3]; 0.08 µg/mL (≈ 0.265 µM) in assay [4]; 0.01 µg/mL (≈ 0.0331 µM) in assay [5]; 0.008 µg/mL (≈ 0.0265 µM) in assay [6]. Moreover, the EC50 in assay [7] came out at 0.32 µg/mL (≈ 1.06 µM).
Consider `Nc1ccn([C@@H]2CS[C@H](CO)O2)c(=O)n1` [Compound 3TC, (-)-2'-deoxy-3'-thiacytidine], for which the EC50 in assay [1] (Human immunodeficiency virus 1, IIIB, CCRF-CEM, read-out: EC50) was 0.008 µg/mL (≈ 0.0349 µM); in assay [2] (setting [8]) it was 0.05 µg/mL (≈ 0.218 µM); in assay [3] (setting [8]), 0.04 µg/mL (≈ 0.174 µM); in assay [4] (setting [8]), 0.03 µg/mL (≈ 0.131 µM); in assay [5] (setting [8]), 0.03 µg/mL (≈ 0.131 µM); in assay [6] (setting [8]), 0.04 µg/mL (≈ 0.174 µM). In addition, the EC50 in assay [7] (setting [8]) came out at 0.03 µg/mL (≈ 0.131 µM).
